These results are taken from patent publication US20090270391A1, “THIENOPYRIDINE DERIVATIVE, OR QUINOLINE DERIVATIVE, OR QUINAZOLINE DERIVATIVE, HAVING c-MET AUTOPHOSPHORYLATION INHIBITING POTENCY” (Kirin Pharma Kabushiki Kaisha, priority 2005, published 2009).

Data set [1] concerns the target T1, KDR (Homo sapiens, UniProt P35968). The experiment in a line: KDR enzyme inhibitory activity (32P-ATP, SDS-PAGE). Details: The KDR protein (812-1346AA) was prepared from SF21 insect cells; made in house; host or cells: SF21 insect cells (Bac to Bac baculovirus system). The data set is classed as biochemical. How it is done: (§1) c-Met protein (upstate, Lot: 25735AU, catalog code 14-526) was diluted with EDB (20 mM MOPS (pH 7.0), 1 mM EDTA, 0.01% Brij 35, 5% glycerol, 0.1% β-mercaptoethanol, and 1 mg/ml BSA) to 10 ng/μl. The KDR protein (812-1346AA) was prepared from SF21 insect cells (affinity purification, 12.4 μg/μl) according to the protocol of Invitrogen (Bac to Bac (tradename) baculovirus expression system) and was diluted with EDB to 248 ng/μl. A five-fold concentration of a reaction buffer (40 mM MOPS (pH 7.4), 1 mM EDTA) (5 μl), a ten-fold concentration of compound A (5 μl), 250 mM MnCl2 (2.5 μl), sterilized distilled water (2.5 μl), c-Met protein or KDR protein (5 μl) was mixed thereinto under ice cooling. An ATP reaction solution (25 mM ATP, 10 μci/μl γ-^32P-ATP (1 μl), 25 mM Mg (OAc)2, and 1.25 mM Hepes (pH7.4)) (10 μl) was added, and the mixture was allowed to react at 37° C. for 10 min. A tris-SDS β-ME sample treatment liquid (301780, Daiichi Kagaku Inc.) (10 μl) was added to stop the reaction. The reaction solution was boiled at 95° C. for 5 min and was then subjected to SDS-PAGE. The gel after the migration was packed, and an imaging plate (Fuji Film) was applied to the gel for transfer, followed by analysis with Typhoon (Amersham Biosciences). The IC50 value was calculated with a software for analysis Graph Pad Prism Ver.4 (Graph Pad Software, Inc.).
Target sequence in this assay (P35968 812-1346): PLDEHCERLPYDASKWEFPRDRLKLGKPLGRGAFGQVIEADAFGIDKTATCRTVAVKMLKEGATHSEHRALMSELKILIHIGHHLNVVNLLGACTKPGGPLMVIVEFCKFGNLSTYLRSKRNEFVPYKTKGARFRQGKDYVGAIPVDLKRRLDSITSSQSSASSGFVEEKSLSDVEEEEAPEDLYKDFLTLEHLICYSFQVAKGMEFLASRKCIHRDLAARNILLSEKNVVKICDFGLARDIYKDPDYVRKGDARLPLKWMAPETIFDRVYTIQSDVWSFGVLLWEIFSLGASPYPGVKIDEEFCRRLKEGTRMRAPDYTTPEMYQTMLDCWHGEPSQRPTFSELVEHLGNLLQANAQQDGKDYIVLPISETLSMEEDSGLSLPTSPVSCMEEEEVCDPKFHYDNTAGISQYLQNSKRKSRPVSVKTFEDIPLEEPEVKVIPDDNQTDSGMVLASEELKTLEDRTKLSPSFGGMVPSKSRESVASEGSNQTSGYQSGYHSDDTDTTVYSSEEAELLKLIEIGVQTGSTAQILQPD

Data set [2] addresses T2, c-Met (Homo sapiens, UniProt P08581). The experiment in a line: c-Met autophosphorylation inhibitory activity (general statement).
Target sequence in this assay (P08581 25-1390): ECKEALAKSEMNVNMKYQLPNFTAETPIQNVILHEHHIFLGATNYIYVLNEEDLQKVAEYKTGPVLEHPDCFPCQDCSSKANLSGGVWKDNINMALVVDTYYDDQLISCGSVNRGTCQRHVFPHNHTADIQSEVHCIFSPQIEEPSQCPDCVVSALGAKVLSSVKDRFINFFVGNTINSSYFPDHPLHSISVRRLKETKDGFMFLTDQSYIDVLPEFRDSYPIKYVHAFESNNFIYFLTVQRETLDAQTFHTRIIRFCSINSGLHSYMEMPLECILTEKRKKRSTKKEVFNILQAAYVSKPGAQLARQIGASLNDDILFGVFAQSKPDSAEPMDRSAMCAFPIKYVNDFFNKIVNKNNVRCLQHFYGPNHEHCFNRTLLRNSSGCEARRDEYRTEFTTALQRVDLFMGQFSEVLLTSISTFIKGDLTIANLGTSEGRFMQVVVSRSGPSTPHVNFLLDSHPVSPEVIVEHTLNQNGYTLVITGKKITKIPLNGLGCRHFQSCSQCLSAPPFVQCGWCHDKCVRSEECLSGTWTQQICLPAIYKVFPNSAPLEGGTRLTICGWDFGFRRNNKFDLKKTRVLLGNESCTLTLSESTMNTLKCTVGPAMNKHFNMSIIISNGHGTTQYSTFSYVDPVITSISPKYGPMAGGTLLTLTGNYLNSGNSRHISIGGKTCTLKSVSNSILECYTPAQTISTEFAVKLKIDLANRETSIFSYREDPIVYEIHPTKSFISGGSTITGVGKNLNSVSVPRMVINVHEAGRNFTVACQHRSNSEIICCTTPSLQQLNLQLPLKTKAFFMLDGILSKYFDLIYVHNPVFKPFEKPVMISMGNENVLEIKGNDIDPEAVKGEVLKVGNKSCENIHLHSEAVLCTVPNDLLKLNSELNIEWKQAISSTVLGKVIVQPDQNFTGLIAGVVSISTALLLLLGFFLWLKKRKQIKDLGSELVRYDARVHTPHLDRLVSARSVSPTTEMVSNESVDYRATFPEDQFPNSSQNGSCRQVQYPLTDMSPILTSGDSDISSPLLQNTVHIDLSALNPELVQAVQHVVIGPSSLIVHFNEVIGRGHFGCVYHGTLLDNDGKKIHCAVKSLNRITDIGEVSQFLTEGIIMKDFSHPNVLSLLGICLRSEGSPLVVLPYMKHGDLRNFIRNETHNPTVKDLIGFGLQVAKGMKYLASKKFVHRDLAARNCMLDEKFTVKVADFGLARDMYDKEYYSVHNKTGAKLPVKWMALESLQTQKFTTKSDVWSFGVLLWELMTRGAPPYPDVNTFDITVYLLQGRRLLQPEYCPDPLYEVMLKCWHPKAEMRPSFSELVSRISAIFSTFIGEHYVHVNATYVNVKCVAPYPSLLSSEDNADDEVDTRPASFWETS
In data set [3] the test system is mouse lower limb bone growth plate. Nature of the data set: Influence on mouse lower limb bone growth plate. The data set is classed as in vivo. As to conditions: nude mice, 50 mg/kg oral once a day for 4 weeks. How it is done: Nude mice (BALB-nu/nu, female, four weeks old, Charles River Japan, Inc.) were preliminarily raised for one week, and the mice were grouped so that each group consisted of 8 mice. Compound A (50 mg/kg) suspended in 0.5% methylcellulose was orally administered once a day for 4 weeks to the compound A group. On the other hand, 0.5% methylcellulose was administered to the control group in the same manner as in the compound A group.
On the 29th day after the initiation of the administration, the animals were killed from ether anesthesia. A lower limb bone around the knee region was removed, was fixed in buffer formalin, was deashed and was then subjected to paraffin embedding. A thin sliced sample was dyed with HE, and the knee bone was photographed, and whether or not thickening of the bone growth plate occurs was quantitatively determined with an image analysis software (WinROOF Ver5, MITANI CORPORATION).

The target of data set [4] is T2, c-Met. The experiment in a line: c-Met autophosphorylation inhibition in culture cells A431, HGF stimulated (immunoprecipitation/blot). The data set is classed as cell-based. Conditions: 50 ng/ml HGF. Details: endogenous in cells. From the text: (§2) MKN45 (human poorly differentiated gastric cancer cell line, Riken) and A431 (human epithelioid cancer cell line, JCRB) were used for the measurement of c-Met autophosphorylation inhibition, and HUVEC (human vascular endothelial cells, KURABO INDUSTRIES LTD.) was used for the measurement of KDR autophosphorylation inhibitory activity.
(§3) MKN45 (2.5×10^5/well) or A431 (8.5×10^5/well) was inoculated into wells, containing RPMI (GIBCO) containing 0.1% fetal calf serum (JRH Biosciences), in a 6-well plate (Collagen Type I coated Plate, 4810-010, IWAKI), and, 24 hr after the inoculation, the medium was replaced with an RPMI medium containing 0.10% fetal calf serum. Thereafter, compound A was added, followed by incubation for 90 min under conditions of 37° C. and 5% CO2. The culture was removed without stimulation for MKN45 and after stimulation for 10 min with 50 ng/ml HGF (294-HG, R&D SYSTEMS) for A431. A solubilizing buffer solution (20 mM HEPES (pH 7.4), 150 mM NaCl, 0.2% TritonX-100, […], 5 mM sodium orthovanadylate, 5 mM disodium ethylenediaminetetraacetate, and 2 mM Na4P2O7) (500 μl/well) was added to satisfactorily solubilize the cells. […] The film was quantified by Scion Image, and the IC50 value was determined with an analysis software Graph Pad Prism Ver.4 (Graph Pad Software, Inc.).
Target sequence in this assay (P08581 25-1390): as above

The nature of data set [5]: Human liver microsome test. The data set is classed as in vitro ADME. Conditions: data not shown. Background: Liver microsomes are a subcellular fraction often used to study metabolism.
Data set [6] addresses T2, c-Met. The experiment in a line: c-Met enzyme inhibitory activity (32P-ATP, SDS-PAGE). Details: purchased upstate 14-526. The data set is classed as biochemical. How it is done:
as §1
Target sequence in this assay (P08581 974-1390 limits assumed): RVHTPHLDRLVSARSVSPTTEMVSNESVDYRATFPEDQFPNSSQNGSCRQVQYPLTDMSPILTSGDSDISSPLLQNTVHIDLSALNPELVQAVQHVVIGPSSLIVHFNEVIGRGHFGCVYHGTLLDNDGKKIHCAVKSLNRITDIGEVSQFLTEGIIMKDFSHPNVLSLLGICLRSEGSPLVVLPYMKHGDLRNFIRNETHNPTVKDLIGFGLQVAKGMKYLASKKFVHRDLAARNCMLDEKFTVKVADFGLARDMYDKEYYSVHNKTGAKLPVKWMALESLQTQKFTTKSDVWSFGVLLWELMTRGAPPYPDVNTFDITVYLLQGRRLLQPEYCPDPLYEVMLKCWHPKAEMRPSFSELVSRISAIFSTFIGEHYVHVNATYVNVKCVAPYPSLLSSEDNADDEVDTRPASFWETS

Data set [7] deals with Human gastric cancer cell line NU-GC-4. The experiment in a line: Tumor growth inhibitory activity against human gastric cancer cell line NU-GC-4 in nude mice. The data set is classed as in vivo. As to conditions: 25 mg/kg oral once a day, 10th day. How it is done:
Human gastric cancer cell line NU-GC-4 (available from Cell Resource Center for Biomedical Research, Institute of Development Aging and Cancer, Tohoku University) is transplanted into nude mice. When the tumor volume becomes about 100 mm^3, the mice are grouped so that the groups each consist of four mice and have an even average tumor volume. The test compound suspended in 0.5% methylcellulose is orally administered once a day for 9 days.
Only 0.5% methylcellulose is administered to the control group in the same manner as in the test groups. The tumor growth inhibition rate (TGIR) is calculated as follows: The tumor growth inhibition rate (TGIR)=(1−TX/CX)×100 wherein CX represents the volume of tumor at day X for the control group and TX represents the volume of tumor for test compound administration groups, when the tumor volume at the day of the start of the administration is presumed to be 1.

In data set [8] the target is T2, c-Met. Nature of the data set: c-Met autophosphorylation inhibition in culture cells MKN45 (immunoprecipitation/blot). The data set is classed as cell-based. Further details: endogenous in cells; host or cells: MKN45.
Source text: as §2, §3
Target sequence in this assay (P08581 25-1390): as the sequence (P08581 25-1390) above

The target in data set [9] is T1, KDR. The experiment in a line: KDR autophosphorylation inhibition in HUVEC, VEGF stimulated. The data set is classed as cell-based. Details: endogenous in cells; host or cells: HUVEC. Conditions: 50 ng/ml VEGF.
Source text: as §2
HUVEC was inoculated into an EGM medium (KURABO INDUSTRIES LTD.) so that the number of cells was 2×10^6/100-mm Petri dish (Collagen coated Dish, 4020-010, IWAKI), and, 24 hr after the inoculation, the EGM medium was replace with an EBM medium containing 0.5% fetal calf serum (KURABO INDUSTRIES LTD.). Compound A was added, and the mixture was incubated for 90 min. After stimulation with 50 ng/ml of VEGF (100-20, PeproTech, Inc.) for 5 min, the culture was removed. The residue was subjected to immunoprecipitation with a KDR antibody (Flk-1, C-1158, Santa Cruz) by the above c-Met autophosphorylation inhibitory activity measuring method, followed by SDS-PAGE to measure KDR autophosphorylation inhibitory activity.
Target sequence in this assay (P35968 20-1356): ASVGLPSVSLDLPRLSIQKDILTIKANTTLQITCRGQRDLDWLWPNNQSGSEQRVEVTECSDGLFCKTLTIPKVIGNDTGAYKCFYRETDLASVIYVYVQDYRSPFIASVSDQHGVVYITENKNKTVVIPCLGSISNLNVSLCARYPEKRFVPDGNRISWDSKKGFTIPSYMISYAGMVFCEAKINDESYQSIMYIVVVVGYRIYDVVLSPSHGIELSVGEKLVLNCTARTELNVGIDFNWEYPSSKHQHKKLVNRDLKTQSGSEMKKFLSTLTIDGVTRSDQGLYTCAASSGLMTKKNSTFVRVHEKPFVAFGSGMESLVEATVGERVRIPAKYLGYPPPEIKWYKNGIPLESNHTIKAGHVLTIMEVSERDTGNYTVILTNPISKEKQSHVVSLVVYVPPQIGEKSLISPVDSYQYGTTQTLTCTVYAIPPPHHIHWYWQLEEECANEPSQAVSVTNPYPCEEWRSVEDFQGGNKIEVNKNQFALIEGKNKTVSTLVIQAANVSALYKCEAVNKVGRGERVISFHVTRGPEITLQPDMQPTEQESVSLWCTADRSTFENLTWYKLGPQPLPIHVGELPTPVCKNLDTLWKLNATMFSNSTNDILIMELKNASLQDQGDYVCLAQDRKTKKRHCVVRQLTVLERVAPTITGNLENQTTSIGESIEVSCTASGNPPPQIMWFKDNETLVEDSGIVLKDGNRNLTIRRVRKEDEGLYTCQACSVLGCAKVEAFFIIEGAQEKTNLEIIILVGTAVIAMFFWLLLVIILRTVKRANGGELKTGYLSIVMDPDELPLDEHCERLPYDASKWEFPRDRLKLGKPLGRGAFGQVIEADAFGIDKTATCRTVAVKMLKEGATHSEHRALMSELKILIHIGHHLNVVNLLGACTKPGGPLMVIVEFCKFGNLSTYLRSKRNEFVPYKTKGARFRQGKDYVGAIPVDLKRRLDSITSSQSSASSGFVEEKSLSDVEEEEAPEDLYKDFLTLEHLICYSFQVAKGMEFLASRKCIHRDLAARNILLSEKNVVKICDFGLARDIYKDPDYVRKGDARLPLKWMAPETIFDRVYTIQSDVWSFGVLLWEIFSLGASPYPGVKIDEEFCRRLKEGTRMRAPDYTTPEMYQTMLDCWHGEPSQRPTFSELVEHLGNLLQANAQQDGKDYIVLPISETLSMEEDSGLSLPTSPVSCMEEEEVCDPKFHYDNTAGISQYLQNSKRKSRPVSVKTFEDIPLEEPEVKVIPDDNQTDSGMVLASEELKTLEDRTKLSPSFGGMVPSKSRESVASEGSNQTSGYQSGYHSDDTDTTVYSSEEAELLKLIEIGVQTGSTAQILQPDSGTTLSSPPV

Data set [10] deals with T1, KDR. Nature of the data set: KDR autophosphorylation inhibitory activity (general statement).
Target sequence in this assay (P35968 20-1356): as above

As usually defined, the IC50 is the point on the concentration scale where inhibition reaches its midpoint. Low readings indicate greater potency in that assay, high ones weaker potency in that assay.

`COc1cc(Oc2ccnc3cc(OC)c(OC)cc23)ccc1NC(=S)NC(=O)Cc1ccc(F)cc1` [Compound A, N-[4-{(6,7-dimethoxy-4-quinolyl)oxy}-2-methoxyphenyl]-N′-[2-(4-fluorophenyl)acetyl]thiourea]: the IC50 at KDR [1] is at least 1000 nM; against c-Met [4], 9.3 nM; against c-Met [6], 15.5 nM; on c-Met [8] (c-Met (MKN45), without stimulation), 11.3 nM; at KDR [9], at least 1000 nM. Further, the “c-Met autophosphorylation inhibitory activity” value at c-Met [2] was “high”. Besides, in [3], the “thickening of the bone growth plate” value is “did not induce the thickening of the bone growth plate”. For the same compound, the “bone growth plate area” value in [3] (versus control group) was “no significant difference”. The metabolic rate entry in data set [5] was “proper metabolic rate”. In addition, the “TGIR (tumor growth inhibition rate)” value in [7] came to 78%. Besides, on c-Met [8] (c-Met versus KDR autophosphorylation in culture cells), the c-Met/KDR selectivity result is reported as “high”. Moreover, on KDR [10], the “KDR autophosphorylation inhibitory activity” value is given as “low”.
